Laboratory results reported in US6979686B1, “Substituted pyrazoles as p38 kinase inhibitors” (Pharmacia Corporation, priority 2001, dated 2005).
Read-outs that look alike come from different tables or passages of the source. Each block holds one compound with its values, some of them ahead of it.

Key:
[1] = tested on: TNF-α, U937 human histiocytic lymphoma cell line; assay: LPS stimulation of TNF production by U937 cells; assay type: cell-based; details: for U937 Cell % inhib @ conc. (uM): @ 1.0 uM; for inhibition at 1 µM: U-937, @ 1.0 uM; for IC50: human U937 cells stimulated with LPS, read-out: U937 Cell IC50
Experimental: Maintenance and Differentiation of the U937 Human Histiocytic Lymphoma Cell Line:
Fifty million cells in 100 ml media were induced to terminal monocytic differentiation by 24 hour incubation with 20 ng/ml phorbol 12-myristate 13-acetate (Sigma). The cells were washed by centrifugation (200×g for 5 min) and resuspended in 100 ml fresh medium. After 24-48 hours, the cells were harvested, centrifuged, and resuspended in culture medium at 2 million cells/ml.
LPS Stimulation of TNF Production by U937 Cells:
Compounds were prepared as 10 mM stock solutions in DMSO and diluted in culture medium to yield a final DMSO concentration of 0.1% in the cell assay. LPS (E coli, 100 ng/ml final concentration) was then added at a volume of 0.02 ml. After 4 hour incubation at 37° C., the amount of TNF-α released in the culture medium was quantitated by ELISA. Inhibitory potency is expressed as IC50 (μM).
In vitro whole cell assay for measuring the ability of the compounds to inhibit TNF production in human U937 cells stimulated with LPS are shown in the column identified as: • “U937 Cell IC50, uM or % inhib @ conc., (uM)”

[2] = target: T1, human p38 kinase alpha (Homo sapiens, UniProt Q16539); assay: p38 kinase in vitro assay, phosphorylation of biotinylated PHAS-I with 32P-ATP; assay type: biochemical; details: for IC50: read-out: P38 alpha kinase IC50
T1 construct: GST (N, cleaved yes); made in house; host or cells: E. coli DH10B

[3] = TNF production, U937 cells stimulated with LPS
[4] = Homo sapiens, TNF production, LPS-stimulated U937 cells, read-out: U937 Cell % inhib @ conc.
[5] = in vitro P38-alpha kinase inhibition
[6] = Homo sapiens, U-937, TNF production
[7] = Homo sapiens, TNF production, U937 cells stimulated with LPS, read-out: U937 Cell % inhib @ conc.

T1 sequence (Q16539 whole entry): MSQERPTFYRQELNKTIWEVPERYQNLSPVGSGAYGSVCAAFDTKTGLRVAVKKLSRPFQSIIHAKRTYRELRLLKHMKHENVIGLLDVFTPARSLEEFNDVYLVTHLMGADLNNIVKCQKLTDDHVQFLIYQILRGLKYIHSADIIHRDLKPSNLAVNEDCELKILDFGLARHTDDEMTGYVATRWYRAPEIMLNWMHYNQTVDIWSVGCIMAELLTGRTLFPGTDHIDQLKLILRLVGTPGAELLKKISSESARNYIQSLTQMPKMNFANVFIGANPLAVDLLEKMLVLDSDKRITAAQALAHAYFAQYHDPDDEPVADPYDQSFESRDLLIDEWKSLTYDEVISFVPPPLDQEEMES

SMILES: Cc1c(-c2ccncc2)c(-c2ccc(F)cc2)nn1CC(=O)NCCCN1CCN(C)CC1 [Example B-2289]
- inhibition at 10 µM ([1]; Homo sapiens, U-937, @ 10.0 uM, TNF production, LPS-stimulated U937 cells, read-out: U937 Cell % inhib @ conc.): 30%
- IC50 ([2]; in vitro P38-alpha kinase): 3000 nM

SMILES: CCN1CCC(N(CC)C(=O)Cn2nc(-c3ccc(F)cc3)c(-c3ccncc3)c2C)C1 (stereo not shown) [Example B-2369]
- IC50 ([1]; TNF production): > 10000 nM
- P38 alpha kinase % inhib @ conc. ([2]; @ 10.0 uM): 32.0% @

SMILES: CC(NC(=O)c1ccc(C(F)(F)F)cc1)c1[nH]nc(-c2ccc(F)cc2)c1-c1ccncc1 (stereo not shown) [Example B-0704]
- U937 Cell % inhib @ conc. (uM) ([1]; TNF production in human U937 cells stimulated with LPS): 29.0% @
- IC50 [2, 5]: 2190 nM

SMILES: O=C(NC(Cc1ccccc1)c1[nH]nc(-c2ccc(F)cc2)c1-c1ccncc1)c1cccc(Br)c1 (stereo not shown) [Example B-0806]
- IC50 [1, 6]: > 1000 nM
- IC50 [2, 5]: 3280 nM

SMILES: COc1ccccc1C(=O)NC(Cc1ccccc1)c1[nH]nc(-c2ccc(F)cc2)c1-c1ccncc1 (stereo not shown) [Example B-0811]
- inhibition at 1 µM [1, 7]: 2%
- IC50 [2, 5]: 2790 nM

SMILES: Cc1c(-c2ccncc2)c(-c2ccc(F)cc2)nn1CC(=O)N(CC(C)C)CC(C)C [Example B-2372]
- IC50 ([1]; TNF production): > 10000 nM
- P38 alpha kinase % inhib @ conc. ([2]; @ 100.0 uM): 55.0% @

SMILES: Cc1c(-c2ccncc2)c(-c2ccc(F)cc2)nn1CC(=O)Nc1ccc(CCC(=O)c2cccnc2)cc1 [Example B-2445]
- U937 Cell IC50, uM or % inhib @ conc. (uM): % inhib ([1]; @ 10.0 uM, TNF production, U937 cells stimulated with LPS): 15.0% @
- P38 alpha kinase IC50, uM or % inhib @ conc. (uM): % inhib ([2]; @ 10.0 uM): 94.0% @

SMILES: O=S(=O)(c1cccc(Br)c1)N1CCC(c2[nH]nc(-c3ccc(F)cc3)c2-c2ccncc2)CC1 [Example B-1466]
- IC50 [1, 6]: > 1000 nM
- IC50 ([2]; in vitro P38-alpha kinase): 1690 nM

SMILES: O=S(=O)(c1ccc(F)cc1)N1CCC(c2[nH]nc(-c3ccc(F)cc3)c2-c2ccncc2)CC1 [Example B-1470]
- inhibition at 1 µM [1, 4]: 28%
- IC50 ([2]; in vitro P38-alpha kinase): 600 nM

SMILES: O=S(=O)(c1ccc(-c2ccon2)s1)N1CCC(c2[nH]nc(-c3ccc(F)cc3)c2-c2ccncc2)CC1 [Example B-1440]
- inhibition at 1 µM [1, 4]: 3%
- IC50 ([2]; in vitro P38-alpha kinase): 870 nM

Now from value to compound, other results behind:

- P38 alpha kinase % inhib @ conc. (uM) ([2]; @ 1.0 uM): 59.0% @
SMILES: COc1ccc(NC(=O)NCCc2[nH]nc(-c3ccc(F)cc3)c2-c2ccncc2)cc1 [Example B-0978]
- U937 Cell % inhib @ conc. (uM) [1, 3]: 36.0% @

- IC50 ([2]; in vitro P38-alpha kinase): 62 nM
SMILES: O=S(=O)(NCCCc1[nH]nc(-c2ccc(F)cc2)c1-c1ccncc1)c1cccc(C(F)(F)F)c1 [Example B-1276]
- inhibition at 1 µM [1, 4]: 11%

- IC50 ([2]; in vitro P38-alpha kinase): < 100 nM
SMILES: O=C(NCCCc1[nH]nc(-c2ccc(F)cc2)c1-c1ccncc1)NCCCN1CCCC1 [Example B-1318]
- inhibition at 1 µM [1, 4]: 1%

- IC50 ([2]; in vitro P38-alpha kinase): < 100 nM
SMILES: Cc1noc(C)c1S(=O)(=O)NCCCc1[nH]nc(-c2ccc(F)cc2)c1-c1ccncc1 [Example B-1281]
- inhibition at 1 µM [1, 4]: 85%

- IC50 ([1]; TNF production): 2050 nM
- P38 alpha kinase % inhib @ conc. ([2]; @ 1.0 uM): 23% @
SMILES: O=C(NCc1[nH]nc(-c2ccc(F)cc2)c1-c1ccncc1)Nc1ccccc1F [Example B-0162]

- IC50 [2, 5]: 470 nM
SMILES: Cc1ccccc1C(=O)NCCc1[nH]nc(-c2ccc(F)cc2)c1-c1ccncc1 [Example B-1120]
- inhibition at 1 µM [1, 7]: 9%

- P38 alpha kinase % inhib @ conc. (uM) ([2]; @ 1.0 uM): 87.0% @
SMILES: O=S(=O)(NCCc1[nH]nc(-c2ccc(F)cc2)c1-c1ccncc1)c1ccccc1F [Example B-1020]
- U937 Cell % inhib @ conc. (uM) [1, 3]: 36.0% @

- IC50 ([2]; in vitro P38-alpha kinase): < 100 nM
SMILES: Cc1ccc(C)c(S(=O)(=O)NCCCc2[nH]nc(-c3ccc(F)cc3)c2-c2ccncc2)c1 [Example B-1273]
- inhibition at 1 µM [1, 4]: 36%

- IC50 [1, 6]: > 1000 nM
- IC50 ([2]; in vitro P38-alpha kinase): < 100 nM
SMILES: NS(=O)(=O)c1ccc(CNC(=O)NCCCc2[nH]nc(-c3ccc(F)cc3)c2-c2ccncc2)cc1 [Example B-1308]

- IC50 ([2]; in vitro P38-alpha kinase): 320 nM
SMILES: Cc1c(-c2ccncc2)c(-c2ccc(F)cc2)nn1CC(=O)NCCc1cccs1 [Example B-2279]
- U937 Cell % inhib @ conc. ([1]; @ 10.0 uM, TNF production, LPS-stimulated U937 cells): 36.0% @

- P38 alpha kinase % inhib @ conc. (uM) ([2]; @ 1.0 uM): 82.0% @
SMILES: CCOC(=O)c1cccc(NC(=O)NCCc2[nH]nc(-c3ccc(F)cc3)c2-c2ccncc2)c1 [Example B-0942]
- U937 Cell % inhib @ conc. (uM) [1, 3]: 2.0% @

- P38 alpha kinase % inhib @ conc. (uM) ([2]; @ 1.0 uM): 58.0% @
SMILES: O=S(=O)(C=Cc1ccccc1)NCCc1[nH]nc(-c2ccc(F)cc2)c1-c1ccncc1 [Example B-1016]
- U937 Cell % inhib @ conc. (uM) [1, 3]: 10.0% @

- IC50 [2, 5]: 500 nM
SMILES: O=C(NCCc1[nH]nc(-c2ccc(F)cc2)c1-c1ccncc1)c1cc(F)cc(F)c1 [Example B-1130]
- inhibition at 1 µM [1, 7]: 29%
